Experimental data taken from article PMC9668304 (2022).

Key:
[1] = test system: aminoglycoside aptamer (tobramycin-binding aptamer) (DNA, aptamer) GGGACTTGGTTTAGGTAATGAGTCCC; test: square-wave pulsed OECT (aptamer on gate), 70 Hz; settings: 137 mM NaCl, 2.7 mM KCl; 1x PBS, ambient temperature; saturable Langmuir-Hill isotherm, reversible; immobilised aptamer
[2] = test system: aminoglycoside aptamer (tobramycin-binding aptamer) (DNA, aptamer) GGGACTTGGTTTAGGTAATGAGTCCC; test: three-electrode square-wave voltammetry, 240 Hz; settings: 137 mM NaCl, 2.7 mM KCl; 1x PBS, ambient temperature; saturable Langmuir-Hill isotherm, reversible; immobilised aptamer

SMILES: NC[C@H]1O[C@H](O[C@H]2[C@H](O)[C@@H](O[C@H]3O[C@H](CO)[C@@H](O)[C@H](N)[C@H]3O)[C@H](N)C[C@@H]2N)[C@H](N)C[C@@H]1O
- binding [1]: yes
- binding [2]: yes
